Reference: US20080039410A1, “Inositol 1,4,5-Trisphosphate Receptor Mutants and Uses Thereof” (priority 2004, published 2008)
“Also recorded” adds a separate entry of the source.

Assays:
S2+ InsP3R-1 = target: T1, S2+ InsP3R-1 (Rattus norvegicus, UniProt P29994, S1756E); test: Flash photolysis of caged InsP3 (ci-IP3/PM), Fluo-4, DT-40 3ko cells expressing S2+ InsP3R-1 constructs; type: cell-based; settings: UV flash 0.5-5 ms
T1 construct: The entire receptor DNA was excised from the plasmid using EcoRI and ligated into the plasmid MXT-1; expressed in transfected cells; host or cells: DT-40 3ko (chicken B cells lacking all InsP3R), co-transfected with m3 muscarinic receptor and HcRed
Procedure: Transfected cells were simultaneously loaded by incubation with the visible wavelength indicator Fluo-4 and a cell permeable form of caged-inositol trisphosphate (ciIP3/PM) for 30 min. Ci-IP3/PM is a homologue of cm-IP3/PM [45] The 2- and 3-hydroxyls of the inositol ring were protected by an isopropylidene group in ci-IP3/PM, and were protected by a methoxymethylene group in cm-IP3/PM. Like cm-IP3/PM, ci-IP3/PM diffuses across cell membranes and induces internal calcium release upon photo-uncaging. A further period of approximately 30 min was allowed for de-esterification of both dye and cage. Cells were illuminated at 488±10 nm and fluorescence collected through a 525±25 nm band pass filter and captured using the Till Photonics imaging suite. […] Photolytic release was performed as previously described using a pulsed Xenon arc lamp (Till Photonics). […]
Transfected cells were simultaneously loaded with the visible wavelength indicator Fluo-4 and a cell-permeable form of caged inositol trisphosphate (ci-IP3/PM) for 30 min. ci-IP3/PM is a homologue of cm-IP3/PM. […] Cells were illuminated at 488±10 nm and fluorescence collected through a 525±25-nm bandpass filter and captured using the Till Photonics imaging suite. […]

S2− InsP3R-1 = test: Potentiation of CCh-induced Ca2+ release after PKG activation (8-Br cGMP), S2− InsP3R-1 constructs in DT-40 3ko cells; type: cell-based, rat
Procedure: Transfected DT-40 3ko cells were washed once in a HEPES-buffered physiological saline solution (HEPES-PSS) containing (in mM) 5.5 glucose, 137 NaCl, 0.56 MgCl2, 4.7 KCl, 1 Na2HPO4, 10 HEPES (pH 7.4), 1.2 CaCl2 and 1% w/v Bovine Serum Albumin. Cells were then resuspended in BSA HEPES-PSS with 1 μM Fura-2 (AM), placed on a 15 mm glass coverslip in a low volume perfusion chamber (Warner Instruments) and allowed to adhere for 30 minutes at room temperature. Cells were perfused continually for 10 minutes with HEPES-PSS before experimentation to allow Fura-2 de-esterification. A field of cells for each experiment was chosen that contained a wide range of transfection efficiency based upon the intensity of red fluorescence emitted when excited at 560 nm. [Ca^2+]i imaging was performed essentially as previously described using an inverted epifluorescence Nikon microscope with a 40× oil immersion objective lens (numerical aperture, 1.3). […] Fluorescence images were captured and digitized with a digital camera driven by TILL Photonics software. […] 340/380 ratio images were calculated online and stored immediately to hard disk.
The effects of treatment were determined by normalizing the peak change in fluorescence ratio by stimulation following forskolin or 8-Br cGMP exposure to that of stimulation in control HEPES-PSS. […]

T1 sequence (P29994 1-2749 isoform P29994-3 S1755E): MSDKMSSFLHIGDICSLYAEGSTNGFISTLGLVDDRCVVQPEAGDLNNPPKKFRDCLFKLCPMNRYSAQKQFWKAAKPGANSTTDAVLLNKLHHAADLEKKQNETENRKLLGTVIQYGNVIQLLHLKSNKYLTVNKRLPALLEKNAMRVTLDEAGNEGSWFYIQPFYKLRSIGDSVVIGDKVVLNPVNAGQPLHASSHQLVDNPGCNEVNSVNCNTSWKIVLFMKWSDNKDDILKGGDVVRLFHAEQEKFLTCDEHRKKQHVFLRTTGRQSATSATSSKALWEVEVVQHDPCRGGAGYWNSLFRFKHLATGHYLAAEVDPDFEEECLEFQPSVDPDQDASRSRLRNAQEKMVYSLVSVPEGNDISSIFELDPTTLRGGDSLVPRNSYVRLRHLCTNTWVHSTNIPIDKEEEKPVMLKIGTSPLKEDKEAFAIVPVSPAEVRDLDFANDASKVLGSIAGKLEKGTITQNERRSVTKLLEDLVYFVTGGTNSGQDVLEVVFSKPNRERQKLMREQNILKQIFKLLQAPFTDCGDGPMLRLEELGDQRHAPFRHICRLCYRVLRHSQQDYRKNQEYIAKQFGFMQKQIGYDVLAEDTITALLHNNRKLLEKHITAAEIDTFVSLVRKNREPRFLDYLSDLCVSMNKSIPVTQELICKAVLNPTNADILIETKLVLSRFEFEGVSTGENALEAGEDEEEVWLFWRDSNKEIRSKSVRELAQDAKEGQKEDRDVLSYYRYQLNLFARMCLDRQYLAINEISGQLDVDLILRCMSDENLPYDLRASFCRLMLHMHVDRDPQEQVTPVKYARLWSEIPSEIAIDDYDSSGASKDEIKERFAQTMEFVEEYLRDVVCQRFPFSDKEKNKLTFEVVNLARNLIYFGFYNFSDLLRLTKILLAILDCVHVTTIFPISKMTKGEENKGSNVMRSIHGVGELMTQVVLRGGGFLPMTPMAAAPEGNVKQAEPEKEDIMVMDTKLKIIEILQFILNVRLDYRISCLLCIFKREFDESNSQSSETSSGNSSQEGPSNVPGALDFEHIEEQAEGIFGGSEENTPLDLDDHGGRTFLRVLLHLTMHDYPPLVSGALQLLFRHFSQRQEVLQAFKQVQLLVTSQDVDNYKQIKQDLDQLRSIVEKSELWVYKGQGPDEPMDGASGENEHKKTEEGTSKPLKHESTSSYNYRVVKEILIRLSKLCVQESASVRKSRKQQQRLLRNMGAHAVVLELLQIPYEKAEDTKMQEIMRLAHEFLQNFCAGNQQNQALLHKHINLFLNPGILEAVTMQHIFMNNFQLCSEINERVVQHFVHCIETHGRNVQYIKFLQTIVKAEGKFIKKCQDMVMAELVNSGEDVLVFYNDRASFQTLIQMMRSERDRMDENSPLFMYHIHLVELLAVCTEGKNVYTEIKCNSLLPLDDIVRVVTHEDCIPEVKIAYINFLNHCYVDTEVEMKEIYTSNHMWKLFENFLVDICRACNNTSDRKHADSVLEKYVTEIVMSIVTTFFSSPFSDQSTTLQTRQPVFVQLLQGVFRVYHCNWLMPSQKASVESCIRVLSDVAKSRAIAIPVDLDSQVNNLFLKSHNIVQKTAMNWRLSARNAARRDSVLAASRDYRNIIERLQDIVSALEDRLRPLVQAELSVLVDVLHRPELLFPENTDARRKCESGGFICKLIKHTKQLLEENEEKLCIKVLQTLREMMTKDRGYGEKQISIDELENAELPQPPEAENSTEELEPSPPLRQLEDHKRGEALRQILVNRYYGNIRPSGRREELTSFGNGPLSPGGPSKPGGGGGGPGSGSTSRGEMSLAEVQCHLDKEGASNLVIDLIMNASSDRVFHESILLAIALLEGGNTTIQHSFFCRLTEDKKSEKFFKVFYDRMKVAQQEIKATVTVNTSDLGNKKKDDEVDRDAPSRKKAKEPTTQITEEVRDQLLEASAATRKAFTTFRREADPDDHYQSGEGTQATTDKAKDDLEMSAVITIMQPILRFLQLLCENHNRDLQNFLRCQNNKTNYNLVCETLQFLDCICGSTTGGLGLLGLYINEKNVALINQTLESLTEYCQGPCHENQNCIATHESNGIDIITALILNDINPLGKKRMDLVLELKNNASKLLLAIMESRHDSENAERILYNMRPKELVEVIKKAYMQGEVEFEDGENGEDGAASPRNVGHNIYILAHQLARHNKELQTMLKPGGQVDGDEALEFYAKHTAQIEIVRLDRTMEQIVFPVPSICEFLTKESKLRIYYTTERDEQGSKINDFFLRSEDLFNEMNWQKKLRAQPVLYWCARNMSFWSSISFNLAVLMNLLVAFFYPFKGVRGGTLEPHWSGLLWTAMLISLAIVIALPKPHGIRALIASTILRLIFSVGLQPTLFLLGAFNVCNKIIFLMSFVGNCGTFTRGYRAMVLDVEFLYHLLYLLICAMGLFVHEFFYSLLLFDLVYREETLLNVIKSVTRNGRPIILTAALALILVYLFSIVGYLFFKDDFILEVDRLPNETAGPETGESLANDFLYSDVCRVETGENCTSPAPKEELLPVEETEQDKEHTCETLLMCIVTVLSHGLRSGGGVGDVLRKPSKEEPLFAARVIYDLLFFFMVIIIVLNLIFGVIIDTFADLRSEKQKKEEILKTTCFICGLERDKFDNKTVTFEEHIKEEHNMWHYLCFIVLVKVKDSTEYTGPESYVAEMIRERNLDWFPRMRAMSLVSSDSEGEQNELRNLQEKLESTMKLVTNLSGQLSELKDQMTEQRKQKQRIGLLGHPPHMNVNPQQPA

With “S2+SE: phosphomimetic S2+ InsP3R-1, long splice variant of S1755E” the “response to photolysis of ci-IP3 versus nonphosphorylatable mutant” value (S2+ InsP3R-1) was “more robustly; also recorded: more sensitive than S2+SA”.

With “S2−WT: wild-type rat type-1 InsP3 receptor, peripheral short S2− splice variant (SEQ ID NO: 17)” the “effect of 8-Br cGMP treatment on CCh-induced Ca^2+ release” value (S2− InsP3R-1; 10 μM 8-Br cGMP) was “no effect” and the “Ca^2+ release after PKG activation” value (S2− InsP3R-1; S2 − InsP3R-1 constructs, Table 2) was “no change”.
